Tests used:
ctDNA = ctDNA detection by fluorescence of the probe in Tris-HCl/KCl buffer pH 7.2; assay type: binding
Method: First, a buffer solution of pH 7.2 is prepared, the preparation process of which is as follows: 394 mg of Tris-HCl and 1.863 g of KCl are added to a 250 ml beaker, and deionized water is added to prepare a buffer solution containing 10 mmol/L Tris-HCl and 100 mmol/L KCl and of pH 7.2 buffer solution.
Then, the buffer solution was used to prepare 0-500 μg/ml ctDNA aqueous solutions, wherein the BHVC content was maintained at 5×10^−6 mol/L.
Taking deionized water solution with ctDNA content of 100 μg/ml as an example, the specific preparation process is described as follows: First, […] compound BHVC was added to a 100 ml volumetric flask, followed by the addition of 100 ml pH 7.2 buffer solution to formulate to a BHVC buffer solution of concentration of 10^−4 mol/L, then 1 ml the above solution was removed to dilute to 10 ml so that the concentration of BHVC was 10^−5 mol/L, 5 ml of this solution was taken and added to a clean spawn bottle.
Then […] ctDNA was taken and added to 10 ml volumetric flask, buffer was added to formulate as 100 μg/ml ctDNA solution, 1 ml this solution was taken, and then added to 4 ml buffer solution, the ctDNA concentration is diluted to 20 μg/ml, the ctDNA solution was added dropwise to the BHVC buffer solution previously placed in the spawn bottle under vigorous stirring. After the addition was completed, the ctDNA solution was allowed to stand still for 2 hours and its UV-Vis absorption and fluorescence spectra were measured.
Based on the study of the absorption and aggregation-induced luminescence properties of BHVC, the fluorescence occurrence behavior of BHVC buffer solution with different ctDNA concentrations was studied with a buffer solution of pH 7.2 and containing 10 mmol/L Tris-HCl and 100 mmol/L KCl, the changes in the detected fluorescence spectrum are shown in FIG. 3 (a). It can be seen from the figure: as the ctDNA concentration increases, the fluorescence intensity of the solution gradually increases, and the fluorescence peak is blue-shifted. When the content of ctDNA changed from 0 μg/ml to 50 μg/ml, the maximum emission peak of fluorescence spectrum shifted from 633 nm to 598 nm, that is blue shifted […]. When the ctDNA concentration was more than 50 μg/ml, the blue shift of the peak of the fluorescence spectrum appeared inflection point, the rate of change slowed down. When the ctDNA content was 500 μg/ml, the peak shifted to 576 nm, which was a blue shift of […] relative to the fluorescence spectrum of a 50 μg/ml DNA solution (FIG. 3 (b)).
The trend in the change of fluorescence intensity of the solution is shown in FIG. 4 (A), with the ctDNA concentration increases, the fluorescence intensity of the solution can be divided into two intervals. […]

[1] = UV-Vis absorption of aqueous solutions at different concentrations (solubility); assay type: physicochemical; settings: 10^-6 to 10^-4 mol/L, no shift of UV absorption spectrum
Source text: The UV-vis absorption spectra of aqueous solutions of different concentrations of BHVC are shown in FIG. 1, the absorption peak at […] is derived from the absorption of the two cross-shaped skeletons of BHVC, and the absorption peak at […] is the characteristic absorption peak of tetraphenylethylene group. When the concentration of BHVC in aqueous solution changed from 10^−6 mol/L to 10^−4 mol/L, there was no red-shift or blue-shift of the UV absorption spectrum of the solution. In general, the shift of the absorption peak of the π-conjugated chromophore solution is due to the π-π interaction between the molecules.

[2] = Fluorescence in water, ethanol and acetone (aggregation-induced luminescence); assay type: physicochemical
Method: Fluorescence spectra were measured on a Perkin Elmer LS95, HITACH F-4500, and Edinburgh FLS920 fluorescence spectrometers at room temperature with laterally collection of fluorescence. Fluorescence lifetime was measured using the Edinburgh FLS920 fluorescence spectrometer. Two-photon fluorescence utilized laser pulses emitted by a Ti: sapphire Mira900-F mode-locked laser as the irradiation light source with a repetition frequency of 76 MHz and a pulse width of 200 fs using the SpectroPro 300i spectrometer to collect fluorescence laterally. […] All the test utilized 1.0 cm×1.0 cm Quartet pass quartz crystal cuvette. Reagents used to prepare solutions are either spectroscopic or chromatographic purified.
It can be seen that the fluorescence intensity of BHVC in aqueous solution is very weak and the fluorescence emission peak is at 627 nm. However, the fluorescence intensity in ethanol solution with the same concentration of BHVC increases by 30 times, and the fluorescence emission peak red-shifted to 631 nm. In fact, ethanol is a poor solvent for BHVC. Therefore, BHVC exists in the form of aggregates in ethanol solvent.

solubility in aqueous solution [1]: good solubility
increase of fluorescence intensity in ethanol versus aqueous solution ([2]; 10^-5 mol/L, excitation 420 nm): 30 times
solvent quality of ethanol for the probe ([2]; ethanol, exists as aggregates): poor solvent
SMILES: CCn1c2cc(/C=C/c3cc[n+](C)cc3)ccc2c2ccc(/C=C/c3cc[n+](C)cc3)cc21.[I-].[I-] [BHVC, 2,7-bis (1-methyl-4-vinylpyridine)-9-ethylcarbazole iodised salt]
Stern-Volmer constant Ksv (ctDNA; ctDNA 0-50 μg/ml linear interval, I/I0=Ksv[Q]+1, excitation 420 nm): 1.4×10^2
blue shift of emission peak (to 576 nm) relative to 50 μg/ml DNA solution (ctDNA; ctDNA 500 μg/ml): 24 nm
increase of fluorescence intensity relative to 0 μg/ml ctDNA (ctDNA; ctDNA 500 μg/ml, BHVC 5×10^-6 mol/L): 20 fold
blue shift of maximum emission peak (633 nm to 598 nm) (ctDNA; ctDNA from 0 μg/ml to 50 μg/ml): 35 nm
